Experimental data taken from US6900216B2, “Dihydroimidazo[2,1-b]thiazole and dihydro-5h-thiazolo[3,2-A]pyrimidines as antidepressant agents” (Knoll GmbH, priority 2000, dated 2005).

Tests used:
5-HT reuptake sites = biological target: T1, 5-HT reuptake sites (Rattus norvegicus, UniProt P31652); assay: 5-HT uptake: displacement of [3H]citalopram from 5-HT reuptake sites, rat frontal cortical membranes; type: binding; settings: for inhibition at 1 µM: 10^−6 M test compound, single determination, [3H]citalopram; for Ki: [3H]citalopram 1.3 nM, rat frontal cortical membranes, fit to data from three experiments
T1 construct: Frontal cortical tissue from the brains of male Charles River rats; from tissue; host or cells: rat frontal cortical membranes
Procedure: Frontal cortical tissue from the brains of male Charles River rats weighing 150-250 g was homogenised in ice-cold 50 mM Tris-HCl, pH 7.4 (when measured at 25° C.) containing 120 mM sodium chloride and 5 mM potassium chloride (Tris buffer; 1:30 w/v) and centrifuged at 40,000 g for 10 minutes. The supernatant was discarded and the pellet rehomogenised in Tris buffer, 1:60 w/v, and centrifuged at 40,000 g for 10 minutes. This step was repeated a further time. The final pellet was resuspended in 50 mM Tris-HCl, pH 7.4 containing 120 mM sodium chloride and 5 mM potassium chloride (equivalent to 3.125 mg wet weight of tissue/ml) and used immediately in the binding assay. All centrifugations were performed at 4° C.
Membranes (400 μl; equivalent to 1.25 mg wet weight of tissue/tube) were incubated with 50 μl [^3H]citalopram at a single concentration of 1.3 nM and 50 μl of distilled water (total binding) or 50 μl of test compound (at a single concentration of 10^−6 M or at 10 concentrations ranging from 10^−11-10^−3 M) or 50 μl of paroxetine (0.5 μM; non-specific binding) for 1 h at 27° C. Membrane bound radioactivity was recovered by filtration under vacuum through Skatron 11734 filters presoaked in 0.5% PEI using a Skatron Cell Harvester. Filters were then washed in ice-cold 50 mM Tris-HCl buffer, pH 7.4 (at 25° C., wash setting 9,9,0). The scored filter paper discs were punched out into vials, scintillation fluid added and radioactivity determined by liquid scintillation counting.
(§1) For each of these tests measuring the ability of compounds of Formula I to displace standard ligands from 5-HT1A receptors and 5-hydroxytryptamine (5-HT) and noradrenaline (NA) reuptake sites and muscarinic receptors in vitro, the percentage displacement of specific binding of tritiated ligand by 10^−6 M test compound was calculated in the following way.
(§2) Firstly, specific binding of tritiated ligand in the absence (A) and presence (B) of test compound was determined:
(§3) In the absence of compound: A(dpm)=Total binding (dpm)−Non-specific binding (dpm) In the presence of compound (10^−6 M): B(dpm)=Binding at 10^−6M (dpm)−Non-specific binding (dpm)
(§4) The specific binding of tritiated ligand in the presence (B) of compound was then converted to a percentage of specific binding of tritiated ligand in the absence (A) of compound: % Specific binding at 10^−6 M=B(dpm)/A(dpm)×100
(§5) The percentage displacement of specific binding of tritiated ligand by the test compound (10^−6 M) was then obtained by subtraction of the percentage specific binding in the presence of compound from the percentage specific binding in the absence of compound, which is taken as the maximum binding and so equals 100%:
(§6) % Displacement at 10^−6 M=100−% Specific binding at 10^−6 M.
(§7) In some cases, displacement curves were then produced for compounds which displaced ≧50% of specific binding of the tritiated ligand at 10^−6 M using a range of concentrations of the compound. The Ki was then calculated by simultaneous fitting using equations derived from the Feldman equations by robust non-linear regression to data from three experiments simultaneously (De Lean et al., 1978; Munson and Rodbard, 1980; Feldman, 1992). Munson P J and Rodbard D. Ligand: a versatile computerised approach for characterisation of ligand binding systems. Anal Biochem 1980; 107: 220. Feldman HA. Mathematical theory of complex ligand binding systems at equilibrium: some methods for parameter fitting. Anal Biochem 1992: 48, 317. De Lean A, Munson P J and Rodbard D. Simultaneous analysis of families of sigmoidal curves: application to bioassay, radioligand assay, and physiological dose-response curves. Am J Physiol 1978: 235 (2), E97-E102.
The results obtained in the above tests for 5-HT1A binding and 5-HT and NA uptake and muscarinic binding for the final products of Examples 1-39 hereinafter are given in Table 1 below. Kis are in nM. % Figures are for % displacement at 10^−6 M for a single determination.

[1] = biological target: T2, noradrenaline (NA) reuptake sites (Rattus norvegicus, UniProt Q63380); assay: NA uptake: displacement of [3H]nisoxetine from noradrenaline reuptake sites, rat frontal cortical membranes; type: binding; settings: for inhibition at 1 µM: read-out: NA uptake % displacement at 10^−6 M; for Ki: [3H]nisoxetine 0.6 nM, rat frontal cortical membranes, fit to data from three experiments
T2 construct: Frontal cortical tissue from the brains of male Charles River rats; from tissue; host or cells: rat frontal cortical membranes
Procedure: Frontal cortical tissue from the brains of male Charles River rats weighing 150-250 g was homogenised in ice-cold 50 mM Tris-HCl, pH 7.4 (at 25° C.) containing 120 mM sodium chloride and 5 mM potassium chloride (Tris buffer; 1:60 w/v) using a Kinematic polytron (speed setting 6 for 10 seconds) and centrifuged at 40,000 g for 10 minutes. The supernatant was discarded and the pellet rehomogenised in Tris buffer, 1:60 w/v, and centrifuged at 40,000 g for 10 minutes. This step was repeated twice more so that, in total, the brain tissue was homogenised and centrifuged four times. The final pellet was resuspended in 50 mM Tris-HCl, pH 7.4 containing 300 mM sodium chloride and 5 mM potassium chloride (equivalent to 18.75 mg wet weight of tissue/ml) and used immediately in the binding assay. All centrifugations were performed at 4° C.
Membranes (400 μl; equivalent to 7.5 mg wet weight of tissue/tube) were incubated with 50 μl [^3H]nisoxetine at a single concentration of 0.6 nM and 50 μl of distilled water (total binding) or 50 μl^− of test compound (at a single concentration 10^−6M or at 10 concentrations ranging from 10^−11-10^−3 M) or 50 μl of mazindol (1 μM; non-specific binding) for 4 h at 4° C. Membrane bound radioactivity was recovered by filtration under vacuum through Skatron 11734 filters using a Skatron cell harvester. Filters were rapidly washed with ice-cold 50 mM Tris-HCl, pH 7.4 containing 120 mM sodium chloride and 5 mM potassium chloride (wash setting 9,9,0). The scored filter paper discs were punched out into vials, scintillation fluid added and radioactivity determined by liquid scintillation counting.
as §1, §2, §3, §4, §5, §6
as §7, with “E97-E102. […]” for “E97-E102.”

T1 sequence (P31652 whole entry): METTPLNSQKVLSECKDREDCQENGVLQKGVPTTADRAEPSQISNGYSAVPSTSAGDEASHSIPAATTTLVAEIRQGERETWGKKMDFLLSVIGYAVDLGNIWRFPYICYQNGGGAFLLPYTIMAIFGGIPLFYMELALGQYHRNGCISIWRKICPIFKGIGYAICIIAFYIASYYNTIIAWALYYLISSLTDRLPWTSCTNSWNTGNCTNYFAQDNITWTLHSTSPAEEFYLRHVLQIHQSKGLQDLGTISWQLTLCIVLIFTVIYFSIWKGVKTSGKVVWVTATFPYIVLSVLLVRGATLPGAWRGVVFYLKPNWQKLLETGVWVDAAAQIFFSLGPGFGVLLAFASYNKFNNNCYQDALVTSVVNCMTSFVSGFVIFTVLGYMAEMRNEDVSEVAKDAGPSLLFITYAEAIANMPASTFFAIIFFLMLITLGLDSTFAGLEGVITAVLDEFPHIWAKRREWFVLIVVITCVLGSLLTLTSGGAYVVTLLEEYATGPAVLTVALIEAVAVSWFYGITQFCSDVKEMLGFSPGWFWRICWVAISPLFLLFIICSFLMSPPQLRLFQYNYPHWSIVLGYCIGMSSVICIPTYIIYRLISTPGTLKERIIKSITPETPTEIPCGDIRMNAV
T2 sequence (Q63380 1-617): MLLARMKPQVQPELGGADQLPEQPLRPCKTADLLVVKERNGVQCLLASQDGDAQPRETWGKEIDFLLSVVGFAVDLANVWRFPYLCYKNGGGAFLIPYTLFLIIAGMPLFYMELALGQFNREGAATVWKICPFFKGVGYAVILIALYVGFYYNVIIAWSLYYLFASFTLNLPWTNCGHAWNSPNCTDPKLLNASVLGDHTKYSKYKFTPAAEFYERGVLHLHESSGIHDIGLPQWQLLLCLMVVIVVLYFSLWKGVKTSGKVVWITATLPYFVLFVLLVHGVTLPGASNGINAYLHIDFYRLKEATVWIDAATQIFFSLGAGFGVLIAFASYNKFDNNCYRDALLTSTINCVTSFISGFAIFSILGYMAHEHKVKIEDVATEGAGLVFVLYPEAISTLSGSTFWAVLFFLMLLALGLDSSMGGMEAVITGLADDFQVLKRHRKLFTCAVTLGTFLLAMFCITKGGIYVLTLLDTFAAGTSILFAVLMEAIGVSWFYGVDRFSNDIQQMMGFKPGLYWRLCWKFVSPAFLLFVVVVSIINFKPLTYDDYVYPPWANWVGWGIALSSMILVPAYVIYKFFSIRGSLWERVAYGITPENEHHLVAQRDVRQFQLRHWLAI

| Ki (5-HT reuptake sites) [µM] | Ki [1] [µM] | Structure (SMILES) | inhibition at 1 µM (5-HT reuptake sites) [%] | inhibition at 1 µM [1] [%] |
| --- | --- | --- | --- | --- |
| – | – | Br.Clc1cccc2sc(C3=CSC4=NCCN34)cc12 [Example 1, 3-(4-chlorobenzo[b]thiophen-2-yl)-5,6-dihydroimidazo[2,1-b]thiazole hydrobromide] | 97 | 103 |
| 0.045 | 0.0091 | C1=C(c2cccc3sccc23)N2CCN=C2S1.Cl [Example 2, 3-(benzo[b]thiophen-4-yl)-5,6-dihydroimidazo[2,1-b]thiazole hydrochloride] | – | – |
| 0.175 | 0.0029 | OCC1=C(c2cccc3sccc23)N2CCN=C2S1 [Example 3, [3-(benzo[b]thiophen-4-yl)-5,6-dihydroimidazo[2,1-b]thiazol-2-yl]methanol] | – | – |
| 0.036 | 0.025 | OCC1=C(c2cc3c(Cl)cccc3s2)N2CCN=C2S1 [Example 4, [3-(4-chlorobenzo[b]thiophen-2-yl)-5,6-dihydroimidazo[2,1-b]thiazol-2-yl]methanol] | – | – |
| – | – | Cl.Fc1cccc2sc(C3=CSC4=NCCN34)cc12 [Example 5, 3-(4-fluorobenzo[b]thiophen-2-yl)-5,6-dihydroimidazo[2,1-b]thiazole hydrochloride] | 95 | 100 |
| 0.0444 | 0.021 | Br.CC1=C(c2cc3ccccc3s2)N2CCN=C2S1 [Example 6, 3-(benzo[b]thiophen-2-yl)-2-methyl-5,6-dihydroimidazo[2,1-b]thiazole hydrobromide] | – | – |
| 0.127 | 0.0095 | Br.CC1=C(c2cc3c(F)cccc3s2)N2CCN=C2S1 [Example 7, 3-(4-fluorobenzo[b]thiophen-2-yl)-2-methyl-5,6-dihydroimidazo[2,1-b]thiazole hydrobromide] | – | – |
| 0.275 | 0.0061 | Br.CC1=C(c2cccc3sccc23)N2CCN=C2S1 [Example 8, 3-(benzo[b]thiophen-4-yl)-2-methyl-5,6-dihydroimidazo[2,1-b]thiazole hydrobromide] | – | – |
| 0.387 | 0.0059 | CC1=C(c2cccc3sccc23)N2CCN=C2S1.Cl [Example 9, 3-(benzo[b]thiophen-4-yl)-2-methyl-5,6-dihydroimidazo[2,1-b]thiazole hydrochloride] | – | – |
| 0.0293 | 0.0695 | Br.CC1=C(c2cc3c(Cl)cccc3s2)N2CCN=C2S1 [Example 10, 3-(4-chlorobenzo[b]thiophen-2-yl)-2-methyl-5,6-dihydroimidazo[2,1-b]thiazole hydrobromide] | – | – |
| – | – | Br.CCC1=C(c2cc3cc(Cl)ccc3s2)N2CCN=C2S1 [Example 11, 3-(5-chlorobenzo[b]thiophen-2-yl)-2-ethyl-5,6-dihydroimidazo[2,1-b]thiazole hydrobromide] | 97 | 92 |
| 0.016 | 0.0058 | Br.Oc1cccc2sc(C3=CSC4=NCCN34)cc12 [Example 12, 2-(5,6-dihydroimidazo[2,1-b]thiazol-3-yl)benzo[b]thiophen-4-ol hydrobromide] | – | – |
| – | – | Cc1cccc2sc(C3=CSC4=NCCN34)cc12.Cl [Example 14, 3-(4-methylbenzo[b]thiophen-2-yl)-5,6-dihydroimidazo[2,1-b]thiazole hydrochloride] | 96 | 87 |
| – | 0.018 | OCC1=C(c2cc3ccccc3s2)N2CCN=C2S1 [Example 15, [3-(benzo[b]thiophen-2-yl)-5,6-dihydroimidazo[2,1-b]thiazol-2-yl]methanol] | 75 | – |
| – | – | Br.CC1=C(c2cc3c(C)cccc3s2)N2CCN=C2S1 [Example 16, 2-methyl-3-(4-methylbenzo[b]thiophen-2-yl)-5,6-dihydroimidazo[2,1-b]thiazole hydrobromide] | 93 | 83 |
| – | – | Br.CC1=C(c2cc3c(Cl)cccc3s2)N2CCCN=C2S1 [Example 17, 3-(4-chlorobenzo[b]thiophen-2-yl)-2-methyl-6,7-dihydro-5H-thiazolo[3,2-a]pyrimidine hydrobromide] | 84 | 84 |
| 0.039 | 0.0053 | CSC1=C(c2cc3ccccc3s2)N2CCN=C2S1 [Example 19, 3-(benzo[b]thiophen-2-yl)-2-(methylthio)-5,6-dihydroimidazo[2,1-b]thiazole] | – | – |
| – | – | Br.CC1=C(c2cc3cccc(Cl)c3s2)N2CCN=C2S1 [Example 20, 3-(7-chlorobenzo[b]thiophen-2-yl)-2-methyl-5,6-dihydroimidazo[2,1-b]thiazole hydrobromide] | 73 | 47 |
| 0.092 | 0.0055 | Br.CC1=C(c2ccc3sccc3c2)N2CCN=C2S1 [Example 21, 3-(benzo[b]thiophen-5-yl)-2-methyl-5,6-dihydroimidazo[2,1-b]thiazole hydrobromide] | – | – |

| Structure (SMILES) | Ki (5-HT reuptake sites) [µM] | Ki [1] [µM] | inhibition at 1 µM (5-HT reuptake sites) [%] | inhibition at 1 µM [1] [%] |
| --- | --- | --- | --- | --- |
| Br.CCC1=C(c2cccc3sccc23)N2CCN=C2S1 [Example 13, 3-(benzo[b]thiophen-4-yl)-2-ethyl-5,6-dihydroimidazo[2,1-b]thiazole hydrobromide] | 0.084 | 0.0036 | – | – |
| Br.CCC1=C(c2cc3c(Cl)cccc3s2)N2CCN=C2S1 [Example 18, 3-(4-chlorobenzo[b]thiophen-2-yl)-2-ethyl-5,6-dihydroimidazo[2,1-b]thiazole hydrobromide] | – | 0.0295 | 96 | – |
| CSC1=C(c2cccc3sccc23)N2CCN=C2S1.Cl [Example 22, 3-(benzo[b]thiophen-4-yl)-2-(methylthio)-5,6-dihydroimidazo[2,1-b]thiazole hydrochloride] | 0.085 | 0.0015 | – | – |
